Measured values reported in US7022693B2, “Treatment of lipodystrophy” (Ark Therapeutics Ltd., priority 2001, dated 2006).

Tested on: ACE activity in T-cells
Test: ACE activity in T-cells after administration of a protease inhibitor
Assay type: cell-based

Q: For `CC(C)C[C@H](NC(=O)[C@@H](O)[C@H](N)Cc1ccccc1)C(=O)O` [bestatin], which “ACE activity in T-cells” value is on record?
A: Its value is “increased ACE activity”.
